Experimental data taken from publication PMC10916352, “Safety Evaluation of a Prototypical Diazirine-Based Covalent Crosslinker and Molecular Adhesive” (International Journal of Toxicology, 2023).
Several values for one entry are separate records, joined by “and”; a condition that tells them apart may be missing. Equal entries are not always repeated.

Tested on: Salmonella typhimurium TA100
Test: Bacterial reverse mutation test (Ames), strain TA100
Format: cell-based
Settings: for Revertant Colonies (With S9), plates A, B, C / Revertant Colonies (Without S9), plates A, B, C: individual plates
Experimental: The reverse mutation test was performed to determine the potential of BondLynx and/or its metabolites to induce reverse mutations at the histidine locus of Salmonella typhimurium.[26],[27] The test employs strains of Salmonella typhimurium carrying mutations in the genes involved in histidine production, such that they are only able to grow in histidine supplemented culture media. Upon exposure to mutagenic materials, these mutations may be reversed, thereby restoring the ability to grow in histidine-free media. When grown in the presence of the test compound on media with a small amount of histidine, tester strains grow briefly to allow the opportunity for mutation, followed by proliferation of revertant colonies upon depletion of the provided histidine. Thus, the number of revertant colonies following incubation is indicative of the ability of the test compound to induce mutations.
Tests were performed on two strains of the bacteria (TA98 and TA100) in the absence and presence of an exogenous mammalian metabolic activation system (5% v/v S9). Positive controls and BondLynx were suspended in dimethyl sulfoxide (DMSO) for testing, and DMSO served as the vehicle control. Positive controls consisted of 2-nitrofluorene (10 μg/plate) for the TA98 strain without S9, methyl mesylate (650 μg/plate) for the TA100 strain without S9, and 2-aminoanthracene for both strains with S9 (1 μg/plate for TA98 and 5 μg/plate for TA100). Eight concentrations of BondLynx (1.7, 5.4, 17, 52, 164, 512, 1600 and 5000 μg/plate) were tested in triplicate. The vehicle control was tested in triplicate and the positive controls were tested singular.
Test solutions were prepared by pre-incubating .1 mL fresh bacterial culture (10^9 cells/mL), .1 mL of a BondLynx dilution or control solution, and .5 mL of S9 mix or .1 M phosphate buffer for 30 min before adding to 3 mL of molten (45 ± 2°C) top agar. After mixing in a vortex, agar solutions were poured onto selective agar plates. Upon solidification, the prepared plates were inverted and incubated at 37.0 ± 1.0°C for 48 ± 4 h. Following incubation, revertant colonies were counted with a Sorcerer Colony Counter. The condition of the bacterial background lawn was evaluated macroscopically and/or microscopically using a dissecting microscope when considered necessary.

[1] = TA100, without S9, 1.7 μg/plate
[2] = TA100, without S9, 5.4 μg/plate
[3] = TA100, without S9, 164 μg/plate
[4] = TA100, without S9, 512 μg/plate
[5] = TA100, without S9, 1600 μg/plate
[6] = TA100, without S9, 5000 μg/plate

Structure (SMILES): FC(F)(F)C1(c2ccc(C(c3ccc(C4(C(F)(F)F)N=N4)cc3)(C(F)(F)F)C(F)(F)F)cc2)N=N1 [BondLynx, 2,2-bis-[4-[3-(trifluoromethyl)-3H-diazirin-3-yl]phenyl]hexafluoropropane]
- Mutagenicity conclusion (TA100, absence and presence of S9, 1.7 to 5000 μg/plate): non-mutagenic
- Total number of revertants relative to concurrent vehicle control (TA100, vs DMSO vehicle control): less than two times
- Revertant Colonies (With S9), Mean ± SD (TA100, with S9, 1.7 μg/plate): 95 ± 3
- Revertant Colonies (With S9), plates A, B, C (TA100, with S9, 1.7 μg/plate): 93 and 94 and 98
- Revertant Colonies (With S9), Mean ± SD (TA100, with S9, 5.4 μg/plate): 92 ± 17
- Revertant Colonies (With S9), plates A, B, C (TA100, with S9, 5.4 μg/plate): 98 and 73 and 105
- Revertant Colonies (With S9), Mean ± SD (TA100, with S9, 17 μg/plate): 89 ± 15
- Revertant Colonies (With S9), plates A, B, C (TA100, with S9, 17 μg/plate): 72 and 98 (2×)
- Revertant Colonies (With S9), Mean ± SD (TA100, with S9, 52 μg/plate): 100 ± 16
- Revertant Colonies (With S9), plates A, B, C (TA100, with S9, 52 μg/plate): 118 and 93 and 88
- Revertant Colonies (With S9), Mean ± SD (TA100, with S9, 164 μg/plate): 96 ± 16
- Revertant Colonies (With S9), plates A, B, C (TA100, with S9, 164 μg/plate): 83 and 113 and 91
- Revertant Colonies (With S9), Mean ± SD (TA100, with S9, 512 μg/plate): 99 ± 16
- Revertant Colonies (With S9), plates A, B, C (TA100, with S9, 512 μg/plate): 98 and 84 and 116
- Revertant Colonies (With S9), Mean ± SD (TA100, with S9, 1600 μg/plate): 88 ± 8
- Revertant Colonies (With S9), plates A, B, C (TA100, with S9, 1600 μg/plate): 84 and 82 and 97
- Revertant Colonies (With S9), Mean ± SD (TA100, with S9, 5000 μg/plate): 96 ± 10
- Revertant Colonies (With S9), plates A, B, C (TA100, with S9, 5000 μg/plate): 107 and 94 and 88
- Revertant Colonies (Without S9), Mean ± SD [1]: 88 ± 3
- Revertant Colonies (Without S9), plates A, B, C [1]: 91 and 86 (2×)
- Revertant Colonies (Without S9), Mean ± SD [2]: 112 ± 15
- Revertant Colonies (Without S9), plates A, B, C [2]: 127 and 110 and 98
- Revertant Colonies (Without S9), Mean ± SD (TA100, without S9, 17 μg/plate): 107 ± 7
- Revertant Colonies (Without S9), plates A, B, C (TA100, without S9, 17 μg/plate): 114 and 101 and 105
- Revertant Colonies (Without S9), Mean ± SD (TA100, without S9, 52 μg/plate): 102 ± 22
- Revertant Colonies (Without S9), plates A, B, C (TA100, without S9, 52 μg/plate): 105 and 122 and 78
- Revertant Colonies (Without S9), Mean ± SD [3]: 100 ± 4
- Revertant Colonies (Without S9), plates A, B, C [3]: 95 and 103 and 102
- Revertant Colonies (Without S9), Mean ± SD [4]: 91 ± 17
- Revertant Colonies (Without S9), plates A, B, C [4]: 84 and 110 and 79
- Revertant Colonies (Without S9), Mean ± SD [5]: 91 ± 12
- Revertant Colonies (Without S9), plates A, B, C [5]: 82 and 86 and 105
- Revertant Colonies (Without S9), Mean ± SD [6]: 102 ± 13
- Revertant Colonies (Without S9), plates A, B, C [6]: 91 and 116 and 99
- Cytotoxicity (condition of microcolony lawn) (absence of S9, higher concentrations): slight thinning of the microcolony lawn
- Cytotoxicity (condition of microcolony lawn) (presence of S9, any tested dose level): toxicity was not observed
